Read-outs that look alike come from different tables or passages of the source. In the oligonucleotide strings, read from the 5' end, every base follows the letter of its sugar. An asterisk marks phosphorothioate; unmarked linkages are phosphodiester. Other units and linkages are bracketed, terminal groups are in braces. A string of capitals states the bases alone. e = 2'-O-(2-methoxyethyl) (MOE); [5mC] = 5-methylcytosine; d = 2'-deoxy (DNA)
Tests used:
[1] = human, in vivo; cited from earlier work
stage IIIB or IV NSCLC = assay: Phase 1-2 study of weekly custirsen plus a gemcitabine/platinum-based regimen: survival by serum clusterin; format: in vivo, human; conditions: for median survival time: plus gemcitabine/platinum
Experimental: The relationship between serum clusterin levels and the duration of individual survival was evaluated during a phase 1-2 study of weekly custirsen plus a gemcitabine/platinum-based regimen in patients with stage IIIB or IV NSCLC. Not all of the patients in this study had baseline levels of clusterin measured. However, starting with N=69 subjects with measured baseline clusterin levels, fitting the Cox proportional hazards (PH) model with baseline clusterin as sole predictor gives p=0.10; the coefficient is positive, so that higher clusterin is associated with increased survival risk. Among the N=55 subjects who also had post-baseline data collected, fitting the same PH model gives p=0.05, again with positive coefficient.
A careful search for possible cutpoints, using all N=69 subjects with baseline clusterin levels, produced 71 μg/mL as a strong candidate.
Among all N=69 subjects with a baseline clusterin level, there were […] with clusterin ≦71 μg/mL (median survival time was 18.8 months), and N=26 subjects with baseline clusterin >71 μg/mL (median survival time was 10.2 months); the log-rank p-value=0.004. Removing the N=14 early discontinuers leaves N=35 subjects with baseline clusterin ≦71 μg/mL (median survival time was 28.7 months), and N=20 subjects with baseline clusterin >71 μg/mL (median survival time was 12.2 months); the log-rank p-value=0.0002.
To further assess the relevance of baseline clusterin as a predictor of survival, data from the study were further segregated based on average and minimum clusterin levels achieved during treatment.

[2] = tested on: Advanced or Metastatic (Stage IV) Non Small Cell Lung Cancer; assay: Phase III study: custirsen plus docetaxel versus docetaxel, second line (Example 3); format: in vivo, human
Excerpt: A Multinational, Randomized, Open-Label Phase III Study of Custirsen (TV-1011/OGX-011) In Combination With Docetaxel Versus Docetaxel As A Second-Line Treatment In Patients with Advanced or Metastatic (Stage IV) Non Small Cell Lung Cancer.
Patients randomized to the custirsen arm (Arm A) have 3 doses of custirsen administered in a 5 to 9 day Loading Dose Period prior to Day 1 of Cycle 1. Patients in Arm A receive custirsen on Days 1, 8 and 15, and docetaxel on Day 1 of the 21-day cycles. Patients in Arm B receive only docetaxel on Day 1 of the 21-day cycles. Patients randomized to both arms have 21-day chemotherapy cycles until disease progression, unacceptable toxicity, withdrawal of consent or protocol specified parameters to stop treatment.
After a screening period of up to 28 days, patients are randomized 1:1 to receive either docetaxel and custirsen (Arm A) or docetaxel (Arm B). Randomization is stratified by gender (male vs. female), NSCLC histology (squamous vs. non-squamous), best overall response to the first-line platinum-based therapy (SD/CR/PR vs. PD) and ECOG PS (0 vs. 1) to minimize imbalance at randomization. Patients randomized to Arm A receive 3 doses of custirsen administered in a 5 to 9 day Loading Dose Period prior to Day 1 of Cycle 1. Following the Loading Dose period, patients in Arm A receive custirsen on Days 1, 8 and 15, and docetaxel on Day 1 of the 21-day cycle. Patients in Arm B receive only docetaxel on Day 1 of the 21-day cycle. Patients randomized to both study arms have 21-day chemotherapy cycles until disease progression, unacceptable toxicity, withdrawal from study treatment, or protocol specified parameters to stop treatment. Patients who are removed from study treatment for any reason other than disease progression or death are followed for documented radiological disease progression. All patients who discontinued study treatment are followed to collect further anticancer treatment and survival information until death, loss to follow-up, withdrawal of consent, or up to 12 months after the end of treatment visit for the last patient on the study, whichever comes first.
Tumor response to study treatment and disease progression are based on the criteria proposed by the Response Evaluation Criteria in Solid Tumors (RECIST) guideline (version 1.1). All patients undergo CT or MRI scans of the chest and upper abdomen, as well as any other areas clinically indicated, at screening, then every 6 weeks, starting at week 8 after randomization until disease progression. Tumor measurement is also performed during the end of treatment visit if it is not done within the previous 6 weeks. Patients who discontinue study treatment for reasons other than disease progression continue to have tumor measurements per RECIST v1.1 until disease progression, start of new anticancer therapy, withdrawal of consent, lost to follow-up, or death, whichever occurs first. Assessment of these scans is carried out in a blinded fashion, by a Central Imaging Lab designated by the Sponsor.
Adverse events and concomitant medications are collected throughout the study up to 28 days after the last dose of study treatment. Medical history is assessed, documented results of EGFR and KRAS mutation status are collected, if available, and an electrocardiogram is performed at screening. Physical examination, assessment of the ECOG Performance Status, vital signs, and laboratory evaluations are conducted at screening and throughout the study.
The general health status, as reported by the patients, are assessed by the Functional Assessment of Cancer Therapy-Lung (FACT-L) questionnaire.
Study Agent: Three loading doses of custirsen 640 mg IV over 2 hours administered in 5 to 9 days prior to Day 1 of Cycle 1, then custirsen 640 mg IV over 2 hours on Days 1, 8 and 15 of a 21-day cycle.
Chemotherapy: Docetaxel 75 mg/m^2 IV over 1 hour on Day 1 of a 21-day cycle. […]

[3] = in vivo
Experimental: Three doses of 640 mg custirsen are administered IV during the Loading Dose Period (Days −9 to −1). There is at least one “non-infusion” day between each administration of custirsen (i.e. every other day) during the Loading Dose Period and between the third loading dose of custirsen and Day 1 of Cycle 1. The day prior to Day 1 of Cycle 1 (Day 0) is a “no treatment” day. There are no more than 4 days between the last loading dose and Day 1 of Cycle 1. A common schedule is to give the three loading doses of custirsen on Monday, Wednesday and Friday with Day 1, Cycle 1 starting on the following Monday. Up to nine days are allowed for completing the three loading doses prior to Day 0 to account for clinic visits, weekends, and holidays. Subjects receive each dose of custirsen as a 2 hour infusion.

[4] = tested on: cancerous human prostate, breast, ovarian, lung, renal, bladder, and melanoma cells; conditions: cited from earlier work
clusterin = conditions: cited from earlier work
[5] = tested on: Stage IV Non-Squamous Non-Small Cell Lung Cancer; assay: Phase III study: paclitaxel/carboplatin with or without custirsen (Examples 1 and 2); format: in vivo, human
Excerpt: Subjects randomized to the custirsen arm first receive three doses of custirsen in a 5 to 9 day loading dose period prior to Day 1 of Cycle 1. Subjects randomized to both study arms have 21-day chemotherapy cycles until disease progression, unacceptable toxicity, or completion of 6 cycles; however, subjects randomized to the custirsen arm also receive weekly doses of custirsen starting at Day 1 of each of the 21-day chemotherapy cycles until disease progression, unacceptable toxicity, or completion of all 6 cycles.
This is a randomized, open-label, sponsor-blinded multinational trial. Treatment consists of paclitaxel/carboplatin/custirsen vs. paclitaxel/carboplatin, which compose the two arms of the study.
After a screening period of up to 28 days, subjects are randomly assigned with equal probability to the two arms. Stratified randomization is used in order to minimize between-arm imbalance over four stratification factors: Gender, Eastern Cooperative Oncology Group (ECOG) performance status (0 vs. 1), Smoking status (former/current smoker vs. never-smoker) and Geographical Region (North America, Europe and Southeast Asia).
Subjects randomized to the custirsen arm have a 5 to 9 day loading dose period prior to Day 1 of Cycle 1. […] Subjects who are removed from study treatment for any reason other than disease progression or death are followed for documented disease progression. Once disease progression is documented, subjects enter a survival follow-up phase during which data is collected regarding further cancer treatment and their survival status.
Tumor response to study treatment and disease progression is based on the criteria proposed by the Response Evaluation Criteria in Solid Tumors (RECIST) 1.1 guidelines. All subjects undergo CT or MRI scans of the chest and upper abdomen, as well as any other areas clinically indicated, at screening, then every 6 weeks, starting at week 8 for the first 26 weeks (week 8, 14, 20 and 26) and then every 12 weeks after the week 26 scan until disease progression. These time points are kept within a window of +one week, regardless of the treatment schedule. The week 26 scan is performed as scheduled, regardless of whether the patient is still in the treatment period (i.e. due to treatment delays) or has already completed the end of treatment visit. Once a patient is discontinued from study treatment for documented disease progression, scanning is no longer required. Assessment of these scans is carried out in a blinded fashion, by a Central Imaging Lab.
Adverse events are recorded at each visit during the study and 28 days after the last dose of study treatment. Medical history is assessed at screening and an electrocardiogram is performed. Physical examination, assessment of the ECOG performance status, vital signs and laboratory evaluations are conducted at screening and throughout the study. Adverse events are recorded from when a subject is signed the Informed Consent Form and throughout the study, until the end of the treatment visit (28 days following last dose). They are reviewed and updated at each subsequent visit and during any phone contact with the subject.
The general health status, as reported by the subjects is assessed by the EuroQoL (EQ-5D) and FACT-L questionnaires. Medical resource utilization is also compared between the treatment arms. The EQ-5D is a standardized instrument for use as a measure of health outcome. Applicable to a wide range of health conditions and treatments, it provides a simple descriptive profile and a single index value for health status that can be used in the clinical and economic evaluation of health care as well as population health surveys. EQ-5D is designed for self-completion by subjects. In this study the instrument is self-administrated.
640 mg in 250 mL normal saline IV over 2 hours.
Carboplatin AUC 6.0 mg/ml/min IV over 30 minutes.
The primary outcome measure is overall survival (OS). […]

NSCLC = conditions: patients treated with docetaxel in the 2nd line setting; cited from earlier work
CYP3A4 = CYP3A4 (Homo sapiens, UniProt P08684); conditions: cited from earlier work
CYP3A4, sequence (P08684 whole entry): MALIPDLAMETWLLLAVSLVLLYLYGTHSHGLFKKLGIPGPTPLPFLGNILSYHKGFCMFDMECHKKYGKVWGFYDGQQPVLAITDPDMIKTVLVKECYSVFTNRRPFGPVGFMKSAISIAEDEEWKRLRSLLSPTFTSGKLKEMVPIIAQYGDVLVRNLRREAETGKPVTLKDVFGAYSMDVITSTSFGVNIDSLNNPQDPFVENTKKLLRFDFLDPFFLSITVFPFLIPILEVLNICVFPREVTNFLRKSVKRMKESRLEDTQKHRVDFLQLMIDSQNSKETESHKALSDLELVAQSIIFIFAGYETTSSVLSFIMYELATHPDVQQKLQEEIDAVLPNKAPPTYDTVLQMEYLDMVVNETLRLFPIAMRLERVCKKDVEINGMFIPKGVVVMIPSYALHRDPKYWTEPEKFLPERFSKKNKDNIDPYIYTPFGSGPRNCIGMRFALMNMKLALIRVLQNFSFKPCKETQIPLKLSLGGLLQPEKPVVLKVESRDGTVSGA

[6] = cited from earlier work

Molecule: N.N.O=C([O-])C1(C(=O)[O-])CCC1.[Pt+2] [carboplatin, Carboplatin]
- major dose-limiting toxicity [1]: Bone marrow suppression

Molecule: custirsen: anti-clusterin antisense oligonucleotide CAGCAGCAGAGTCTTCATCAT (Seq. ID No.: 1), phosphorothioate backbone, 2′-O-methoxyethyl at nucleotides 1-4 and 18-21, 5-methylcytosines at 1, 4, 19 (antisense e[5mC]*eA*eG*e[5mC]*dA*dG*dC*dA*dG*dA*dG*dT*dC*dT*dT*dC*dA*eT*e[5mC]*eA*eT; listed as Homo sapiens)
- probability of extended survival by baseline and on-treatment clusterin (stage IIIB or IV NSCLC; low baseline clusterin (71 μg/mL cutpoint) and low levels during therapy (33 μg/mL average or 30 μg/mL minimum cutpoint)): greatest probability of extended survival
- median survival time (stage IIIB or IV NSCLC; all subjects with baseline clusterin level, clusterin >71 μg/mL (N=26)): 10.2 months
- median survival time (stage IIIB or IV NSCLC; all subjects with baseline clusterin level, clusterin ≦71 μg/mL (N=45)): 18.8 months
- median survival time (stage IIIB or IV NSCLC; early discontinuers removed, baseline clusterin >71 μg/mL (N=20)): 12.2 months
- median survival time (stage IIIB or IV NSCLC; early discontinuers removed, baseline clusterin ≦71 μg/mL (N=35)): 28.7 months
- overall survival ([2]; Arm A (custirsen+docetaxel) compared to Arm B (docetaxel)): prolonged survival
- progression free survival ([2]; Arm A compared to Arm B): increased
- proportion of subjects surviving free of progression for at least 14 weeks ([2]; Arm A compared to Arm B): statistically significant higher proportion
- quality of life ([2]; Arm A compared to Arm B): improves
- symptoms of NSCLC (chest pain, pleural effusions, pulmonary edema, dyspnea, hemoptysis) ([2]; Arm A compared to Arm B): occasionally improve
- safety and tolerability ([2]; custirsen 640 mg IV + docetaxel 75 mg/m^2 (Arm A)): safe and well tolerated
- grade 1-2 constitutional symptoms (e.g., fever and chills), subjects affected [3]: 50-60%
- apoptosis [4]: facilitates apoptosis
- sensitization of cancer cells to chemotherapy [4]: sensitizes
- expression of clusterin (clusterin): potently reduces the expression of clusterin
- overall survival ([5]; Arm A (custirsen+paclitaxel/carboplatin) compared to Arm B (paclitaxel/carboplatin)): prolonged survival
- progression free survival ([5]; Arm A compared to Arm B): increased
- proportion of subjects surviving free of progression for at least 14 weeks ([5]; Arm A compared to Arm B): statistically significant higher proportion
- quality of life ([5]; Arm A compared to Arm B): improves
- symptoms of NSCLC (chest pain, pleural effusions, pulmonary edema, dyspnea, hemoptysis) ([5]; Arm A compared to Arm B): occasionally improve
- survival by baseline serum clusterin ([5]; Arm A patients, baseline clusterin below 71 μg/mL versus above 71 μg/mL): tend to survive longer
- safety and tolerability ([5]; custirsen 640 mg IV + paclitaxel/carboplatin (Arm A)): safe and well tolerated

Molecule: CC(=O)O[C@@]12CO[C@@H]1C[C@H](O)[C@@]1(C)C(=O)[C@H](O)C3=C(C)[C@@H](OC(=O)[C@H](O)[C@@H](NC(=O)OC(C)(C)C)c4ccccc4)C[C@@](O)([C@@H](OC(=O)c4ccccc4)[C@H]21)C3(C)C [Docetaxel]
- median PFS (NSCLC): about 3 months
- CYP3A4 substrate status (CYP3A4): CYP3A4 substrate
- grade 4 neutropenia (<500 cells/mm^3), patients affected ([6]; 60 mg/m^2): 75%
- grade 4 neutropenia (<500 cells/mm^3), patients affected ([6]; 100 mg/m^2): 85%
- Neutropenia (<2,000 neutrophils/mm3), patients affected ([6]; 60-100 mg/m^2): virtually all patients
- incidence of treatment-related mortality ([6]; abnormal liver function, higher doses, or NSCLC with prior platinum-based chemotherapy, single agent 100 mg/m^2): increased
- most common side effects ([6]; human, in vivo): infections, neutropenia, anemia, febrile neutropenia, hypersensitivity, thrombocytopenia, neuropathy, dysgeusia, dyspnea, constipation, anorexia, nail disorders, fluid retention, asthenia, pain, nausea, diarrhea, vomiting, mucositis, alopecia, skin reactions and myalgia

Source: patent US20130310440A1, “METHOD FOR TREATING NON-SMALL CELL LUNG CANCER” (TEVA PHARMACEUTICAL INDUSTRIES LTD., priority 2012, published 2013)
